Experimental findings from US4076705A, “Dipeptide derivatives and their production” (Shionogi & Co., Ltd., priority 1974, dated 1978) are described below.

What all share (type): in vivo
In data set [1] the test system is DS male mice. Briefly: Rotarod performance activity. The conditions noted are these: fall from rod (five rotations per minute) within less than 2 minutes. Here is the method:
3. Rotarod performance activity
This test was measured on DS male mice. The mouse was put on a scraped rod of wood, 3 cm in diameter, turning at the rate of five rotations per minute. The mice that could remain on the rod for three or more minutes in successive trials were selected and placed in a group of 10 mice for each dose. If the mouse fell down from the rod within less than 2 minutes, the test compound was considered to be effective. Results were shown by ED50 [Dunham, et al.: J. Am. Pharm. Assoc., 46, 208 (1959)].

Data set [2] concerns DS male mice. Put plainly: Anti-pentylenetetrazol activity. The conditions noted are these: for Anti-pentylenetetrazol activity, ED50: oral, 60 minutes prior to 125 mg/kg s.c. pentylenetetrazol, complete protection against mortality, observed two hours; for times more potent than diazepam, anti-pentylenetetrazol activity: versus diazepam (Compound No. 5). The source says: 1. Anti-pentylenetetrazol activity
The convulsions were disregarded.

Data set [3] has as its system DS male mice. Put plainly: Taming activity. The following applies: for Taming activity ED50: given 60 minutes prior, inhibition of fighting responses to 5 Hz square wave pulse, 5 pairs; for times more potent than diazepam, taming activity: versus diazepam (Compound No. 5). Here is the method:
This test was measured on DS male mice. […] These pairs of mice were selected in the morning and used for drug test in the afternoon. The test compound was administered to both mice of the pairs 60 minutes prior to the experiment. Results were obtained as the mean percentage of inhibition of fighting responses in a group of 5 pairs and shown by ED50 [Tedeschi, et al.: J. Pharmacol Exp. Thev., 125, 28-34 (1959) ].

The mark [4] stands for this setting: versus chlordiazepoxide (Compound No. 4).

For `CNC1=Nc2ccc(Cl)cc2C(c2ccccc2)=[N+]([O-])C1` [Compound No. 4, Chlordiazepoxide, reference compound], the “Rotarod performance ED50” value in the data set with DS male mice [1] was 50.0 mg/kg.
For `CN(C(=O)CNC(=O)CN)c1ccc(Cl)cc1C(=O)c1ccccc1F.Cl` [Compound No. 3, 2-o-fluorobenzoyl-4-chloro-N-methyl-N^α -glycyl-glycinanilide hydrochloride], in the data set with DS male mice [2], the “Anti-pentylenetetrazol activity, ED50” value was found to be 0.33 mg/kg and the “times more potent than diazepam, anti-pentylenetetrazol activity” value is given as 2 to 4 times. In the data set with DS male mice [3], the “Taming activity ED50” value amounted to 1.6 mg/kg and the “times more potent than diazepam, taming activity” value lay within 2 to 4 times. Besides, the “Rotarod performance ED50” value in the data set on DS male mice [1] was 17.0 mg/kg.
For `CN(C(=O)CNC(=O)CN)c1ccc(Cl)cc1C(=O)c1ccccc1` [Compound No. 1, 2-benzoyl-4-chloro-N-methyl-N^α -glycyl-glycinanilide], the “Anti-pentylenetetrazol activity, ED50” value with DS male mice [2] was found to be 1.0 mg/kg. Further, the “times more potent than chlordiazepoxide, anti-pentylenetetrazol activity” value with DS male mice [2] (setting [4]) was in the range of 2 to 3 times. The “times more potent than chlordiazepoxide, taming activity” value in the data set on DS male mice [3] (setting [4]) lay within 2 to 3 times.
As for `CN(C(=O)CNC(=O)CN)c1ccc(Cl)cc1C(=O)c1ccccc1Cl.O` [Compound No. 2, 2-o-chlorobenzoyl-4-chloro-N-methyl-N^α -glycyl-glycinanilide hydrate], in the data set on DS male mice [2], the “Anti-pentylenetetrazol activity, ED50” value was 0.58 mg/kg and the “times more potent than diazepam, anti-pentylenetetrazol activity” value lay in the range of 2 to 4 times. Besides, in the data set with DS male mice [3], the “Taming activity ED50” value was 3.0 mg/kg and the “times more potent than diazepam, taming activity” value is 2 to 4 times.
